Test results from patent US8835428B2, “Diacylglycerol acyltransferase inhibitors” (Piramal Enterprises Limited, priority 2008, dated 2014).

Molecular target: T1, hDGAT1 (Homo sapiens, UniProt O75907)
T1 construct: host or cells: Sf9 insect cells (baculovirus); microsomal preparation
T1 sequence (O75907 1-488): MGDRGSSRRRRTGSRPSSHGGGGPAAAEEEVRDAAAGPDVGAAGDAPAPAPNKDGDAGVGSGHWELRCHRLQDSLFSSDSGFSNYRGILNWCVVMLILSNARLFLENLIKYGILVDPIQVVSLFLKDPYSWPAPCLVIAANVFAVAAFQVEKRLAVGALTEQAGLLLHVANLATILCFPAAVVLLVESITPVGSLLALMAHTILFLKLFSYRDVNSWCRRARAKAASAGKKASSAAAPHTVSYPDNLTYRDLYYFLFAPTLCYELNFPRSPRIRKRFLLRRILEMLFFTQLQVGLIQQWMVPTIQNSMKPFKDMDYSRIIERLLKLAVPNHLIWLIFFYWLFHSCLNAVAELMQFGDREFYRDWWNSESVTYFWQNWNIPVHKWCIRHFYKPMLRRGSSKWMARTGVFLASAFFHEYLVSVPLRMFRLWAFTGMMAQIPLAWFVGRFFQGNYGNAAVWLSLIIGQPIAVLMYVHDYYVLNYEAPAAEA
Experiment: In-vitro DGAT1 assay (hDGAT1 microsomes from Sf9 cells, 14C oleoyl CoA, triglyceride formation)
Type: biochemical
Outline: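 Human DGAT1 in baculovirus-infected Sf9 microsomes (2.5–10 μg), [14C]oleoyl-CoA with 409.5, 1228.5 or 1638 μM 1,2-dioleoyl-sn-glycerol, Tris-HCl pH 7.4 buffer with BSA. Compounds screened at 10, 5 and 1 μM in duplicate. Reaction 10 min at 37 °C; heptane-extracted [14C]triglyceride counted by scintillation.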

SMILES	inhibition at 1 µM	inhibition at 10 µM	further results
CC(C)[C@H](NC(=O)c1cc(-c2ccc(NC(=O)Nc3ccccc3Oc3ccccc3)cc2)no1)C(=O)O [Example 238, (S)-3-Methyl-2-(3-(4-(3-(2-phenoxyphenyl)ureido)phenyl)isoxazole-5-carboxamido)butanoic acid]	75 to 100%	–	–
COC(=O)[C@H](NC(=O)c1cc(-c2ccc(NC(=O)Nc3ccccc3Cl)cc2)no1)C(C)C [Example 220, (R)-Methyl 2-(3-(4-(3-(2-chlorophenyl)ureido)phenyl)isoxazole-5-carboxamido)-3-methylbutanoate]	0 to 50%	–	–
CC(C)[C@H](NC(=O)c1cc(-c2ccc(NC(=O)Nc3ccccc3C(F)(F)F)cc2)no1)C(=O)O [Example 164, (S)-3-methyl-2-(3-(4-(3-(2-(trifluoromethyl)phenyl)ureido)phenyl)isoxazole-5-carboxamido)butanoic acid]	75 to 100%	–	–
Cc1cccc(Cl)c1NC(=O)Nc1ccc(-c2cc(C(=O)N[C@H](C(=O)O)C(C)C)on2)cc1 [Example 175, (S)-2-(3-(4-(3-(2-Chloro-6-methylphenyl)ureido)phenyl)isoxazole-5-carboxamido)-3-methylbutanoic acid]	0 to 50%	–	–
CC(C)C(NC(=O)c1cc(-c2ccc(NC(=O)Nc3cc(F)cc(F)c3)cc2)no1)C(=O)O (stereo not drawn) [Example 160, 2-(3-(4-(3-(3,5-difluorophenyl)ureido)phenyl)isoxazole-5-carboxamido)-3-methylbutanoic acid]	75 to 100%	–	–
COC(=O)[C@@H](NC(=S)c1cc(-c2ccc(Nc3nc4ccc(F)cc4s3)cc2)no1)c1ccccc1 [Example 54, (S)-({3-[4-(6-Fluoro-benzothiazol-2-ylamino)-phenyl]-isoxazole-5-carbothioyl}-amino)-phenyl-acetic acid methyl ester]	–	0 to 50%	–
COC[C@H](NC(=O)c1c(-c2ccc(Nc3nc4ccc(F)cc4s3)cc2)noc1-c1ccccc1)C(=O)OC [Example 70, (S)-2-({3-[4-(6-Fluoro-benzothiazol-2-ylamino)-phenyl]-5-phenyl-isoxazole-4-carbonyl}-amino)-3-methoxy-propionic acid methyl ester]	–	0 to 50%	–
COC(=O)[C@H](CC(C)C)NC(=O)c1cc(-c2ccc(Nc3nc4ccc(F)cc4s3)cc2)no1 [Example 46, (S)-2-({3-[4-(6-Fluoro-benzothiazol-2-ylamino)-phenyl]-isoxazole-5-carbonyl}-amino)-4-methyl-pentanoic acid methyl ester]	–	0 to 50%	–
CC(C)[C@@H](NC(=NO)c1cc(-c2ccc(Nc3nc4ccc(F)cc4s3)cc2)no1)C(=O)O [Example 41, (R)-2-({3-[4-(6-Fluoro-benzothiazol-2-ylamino)-phenyl]-N-hydroxy-isoxazole-5-carboximidoyl}-amino)-3-methyl-butyric acid]	–	0 to 50%	–
COC[C@H](NC(=S)c1c(-c2ccc(Nc3nc4ccc(F)cc4s3)cc2)noc1-c1ccccc1)C(=O)OC [Example 74, (S)-2-({3-[4-(6-Fluoro-benzothiazol-2-ylamino)-phenyl]-5-phenyl-isoxazole-4-carbothioyl}-amino)-3-methoxy-propionic acid methyl ester]	–	0 to 50%	–
COC(=O)[C@@H](NC(=O)c1nc(-c2ccc(NC(=S)Nc3ccccc3)cc2)no1)C(C)C [Example 357, (S)-methyl 3-methyl-2-(3-(4-(3-phenylthioureido)phenyl)-1,2,4-oxadiazole-5-carboxamido)butanoate]	–	–	inhibition at 5 µM: 0 to 50%
COC(=O)[C@H](NC(=S)c1cc(-c2ccc(Nc3nc4ccc(F)cc4s3)cc2)no1)C(C)C [Example 39, (R)-2-({3-[4-(6-Fluoro-benzothiazol-2-ylamino)-phenyl]-isoxazole-5-carbothioyl}-amino)-3-methyl-butyric acid methyl ester]	–	0 to 50%	–
COC(=O)[C@@H](NC(=O)c1cc(-c2ccc(NC(=S)Nc3ccc(C)cc3)cc2)no1)C(C)C [Example 271, (S)-Methyl 3-methyl-2-(3-(4-(3-p-tolylthioureido)phenyl)isoxazole-5-carboxamido)butanoate]	–	–	inhibition at 5 µM: 0 to 50%
CC(C)C[C@H](NC(=O)c1cc(-c2ccc(NC(=O)NC3CCCCC3)cc2)no1)C(=O)O [Example 83, (S)-2-({3-[4-(3-cyclohexyl-ureido)-phenyl]-isoxazole-5-carbonyl}-amino)-4-methyl-pentanoic acid]	–	50 to 75%	–
COC(=O)C1(NC(=O)c2cc(-c3ccc(Nc4nc5ccc(F)cc5s4)cc3)no2)CCCC1 [Example 62, 1-({3-[4-(6-fluoro-benzothiazol-2-ylamino)-phenyl]-isoxazole-5-carbonyl}-amino)-cyclopentanecarboxylic acid methyl ester]	–	0 to 50%	–
COC(=O)[C@H](NC(=O)c1cc(-c2ccc(NS(=O)(=O)c3c(F)cccc3F)cc2)no1)C(C)C [Example 316, (R)-Methyl 2-(3-(4-(2,6-difluorophenylsulfonamido)phenyl)isoxazole-5-carboxamido)-3-methylbutanoate]	0 to 50%	–	–
CC(C)[C@H](NC(=O)c1cc(-c2ccc(NC(=O)Nc3ccccc3OC(F)(F)F)cc2)no1)C(=O)O [Example 203, (S)-3-methyl-2-(3-(4-(3-(2-(trifluoromethoxy)phenyl)ureido)phenyl)isoxazole-5-carboxamido)butanoic acid]	75 to 100%	–	–
CC(C)C(NC(=O)c1cc(-c2ccc(NC(=O)Nc3ccc(F)c(Cl)c3)cc2)no1)C(=O)O (stereo not drawn) [Example 162, 2-(3-(4-(3-(3-chloro-4-fluorophenyl)ureido)phenyl)isoxazole-5-carboxamido)-3-methylbutanoic acid]	75 to 100%	–	–
CC(C)[C@H](NC(=O)c1cc(-c2ccc(NC(=O)NC3CCCCC3)cc2)no1)C(=O)O [Example 81, (S)-2-({3-[4-(3-cyclohexyl-ureido)-phenyl]-isoxazole-5-carbonyl}-amino)-3-methyl-butyric acid]	–	75 to 100%	–
CC(C)[C@@H](NC(=O)c1cc(-c2ccc(NC(=O)Nc3ccc(C#N)cc3)cc2)no1)C(=O)O [Example 219, (R)-2-(3-(4-(3-(4-Cyanophenyl)ureido)phenyl)isoxazole-5-carboxamido)-3-methylbutanoic acid]	50 to 75%	–	–
CC(C)[C@H](NC(=O)c1cc(-c2ccc(NC(=O)Nc3ccccc3)cc2)no1)C(=O)O [Example 77, (S)-3-Methyl-2-({3-[4-(3-phenyl-ureido)-phenyl]-isoxazole-5-carbonyl}-amino)-butyric acid]	–	75 to 100%	–
CC(C)[C@@H](NC(=O)c1cc(-c2ccc(NC(=O)Nc3cccc(C#N)c3)cc2)no1)C(=O)O [Example 217, (R)-2-(3-(4-(3-(3-cyanophenyl)ureido)phenyl)isoxazole-5-carboxamido)-3-methylbutanoic acid]	50 to 75%	–	–
CC(C)[C@H](NC(=O)c1cc(-c2ccc(Nc3nc4ccc(F)cc4s3)cc2)no1)C(=O)O [Example 44, (S)-2-({3-[4-(6-Fluoro-benzothiazol-2-ylamino)-phenyl]-isoxazole-5-carbonyl}-amino)-3-methyl-butyric acid]	–	75 to 100%	–
Cc1ccccc1NC(=O)Nc1ccc(-c2cc(C(=O)NC(C(=O)O)C(C)C)on2)cc1 (stereo not drawn) [Example 154, 3-methyl-2-(3-(4-(3-o-tolylureido)phenyl)isoxazole-5-carboxamido) butanoic acid]	–	–	inhibition at 5 µM: 75 to 100%
